Oligonucleotides are written 5' to 3', each unit as a sugar letter and its base; * is a phosphorothioate linkage, no mark a phosphodiester; rarer units and linkages stand in square brackets, end groups in braces. Plain capitals give the bases only. No end group written: not given here. maleimide = maleimide group (amino-terminal modification); d = 2'-deoxy (DNA); r = 2'-OH (RNA)
What follows are substances tested on epithelial monolayers (assay: Peptide-mediated changes in trans-epithelial electrical resistance (TEER), permeation across epithelial monolayers). Details: measured by peptide-mediated changes in TEER.
Format: cell-based

Row | Substance | Effects (activity to enhance permeation across epithelial monolayers)
1 | BrAc-GWTLNSAGYLLGKINLKALAALAKKILamide (SEQ ID NO: 3) [PN0064] | +
2 | BrAc-KLALKLALKALKAALKLA-amide (SEQ ID NO: 4) (HELM PEPTIDE1{[O=C(CBr)[*:2]].K.L.A.L.K.L.A.L.K.A.L.K.A.A.L.K.L.A.[am]}$$$$V2.0; SMILES CC(C)C[C@H](NC(=O)[C@H](C)NC(=O)[C@H](CCCCN)NC(=O)[C@H](CC(C)C)NC(=O)[C@H](C)NC(=O)[C@H](CC(C)C)NC(=O)[C@H](CCCCN)NC(=O)[C@H](CC(C)C)NC(=O)[C@H](C)NC(=O)[C@H](CC(C)C)NC(=O)[C@H](CCCCN)NC(=O)CBr)C(=O)N[C@@H](CCCCN)C(=O)N[C@@H](C)C(=O)N[C@@H](C)C(=O)N[C@@H](CC(C)C)C(=O)N[C@@H](CCCCN)C(=O)N[C@@H](CC(C)C)C(=O)N[C@@H](C)C(N)=O) [PN0068] | +
3 | GRKKRRQRRRPQ-amide (SEQ ID NO: 5) (GRKKRRQRRRPQ-NH2) [PN0069] | −
4 | Maleimide-GLGSLLKKAGKKLKQPKSKRKV-amide (SEQ ID NO: 12) (maleimide-GLGSLLKKAGKKLKQPKSKRKV-NH2) [PN283] | +
5 | NH2-AAVALLPAVLLALLAPRKKRRQRRRPPQ-amide (SEQ ID NO: 8) (H-AAVALLPAVLLALLAPRKKRRQRRRPPQ-NH2) [PN027] | +
6 | NH2-KETWWETWWTEWSQPGRKKRRQRRRPPQ-amide (SEQ ID NO: 11) (H-KETWWETWWTEWSQPGRKKRRQRRRPPQ-NH2) [PN183] | +
7 | NH2-LLETLLKPFQCRICMRNFSTRQARRNHRRRHRR-amide (SEQ ID NO: 9) (H-LLETLLKPFQCRICMRNFSTRQARRNHRRRHRR-NH2; cysteine pairing not given here) [PN202] | +
8 | NH2-RRRQRRKRGGDIMGEWGNEIFGAIAGFLG-amide (SEQ ID NO: 10) (H-RRRQRRKRGGDIMGEWGNEIFGAIAGFLG-NH2; listed as Influenza virus) [PN250] | +
9 | RKKRRQRRRPPQCAAVALLPAVLLALLAP-amide (SEQ ID NO: 1) (RKKRRQRRRPPQCAAVALLPAVLLALLAP-NH2) [PN0028] | +
10 | RQIKIWFQNRRMKWKK-amide (SEQ ID NO: 2) (RQIKIWFQNRRMKWKK-NH2) [PN0058] | +
11 | RRRRRRR (SEQ ID NO: 6) [PN0071] | −

The substances below were run on beta-galactosidase mRNA (assay: Transfection of 9L/LacZ cells with siRNA and lipofectamine, beta-Gal/BCA assay (silencing of beta-galactosidase)). Details: 9L/beta-gal cells, transfected with lipofectamine; control = cells transfected by lipofectamine alone; lower = greater efficacy.
Format: cell-based
Description: Transfection of 9L/LacZ Cells:
• a) Take saturated 9L/LacZ culture from T75 flask, detach cell and dilute into 10 ml with complete medium (DMEM, 1× PS, 1× Na Pyruvate, 1× NEAA). • b) Further dilute the cell to 1:15, and seed 100 μl into each 96 well, which should give 50% confluence cell the next day for transfection. […] Flow Cytometry Measurement of FITC/FAM Conjugated siRNA • a) After transfection, incubate cell for at least 3 hours. • b) Wash with 200 μl PBS. • c) Detach cell with 15 μl TE, incubate at 37° C. • d) Re-suspend five wells with 30 μl FACS solution (PBS with 0.5% BSA, and 0.1% sodium Azide) • e) Combine all five wells into a tube. • f) Add PI 5 μl into each tube. • g) Analyze the cells with fluorescence activated cell sorting (FCAS) with BD FACscan instrument according to manufacture's instruction.
The transfection was performed with either regular siRNA or cholesterol-conjugated siRNA with lipofectamine (Invitrogen) on 9L/beta-gal cells. The siRNA was designed to specifically knock down beta-galactosidase mRNA and activities are expressed as percentage of beta-gal activities from control (transfected cells by lipofectamine alone). […]

Row | Substance | Activity (% of control): beta-galactosidase activity remaining after the transfection
12 | AA: siRNA construct with no cholesterol conjugated to any of the ends of the sense or antisense RNA strands (SEQ ID NO: 14/15) (sense rCrUrArCrArCrArArArUrCrArGrCrGrArUrUrUdTdT; antisense rArArArUrCrGrCrUrGrArUrUrUrGrUrGrUrArGdTdT) | 23.12 % of control

— US8940857B2, “Methods and compositions for enhancing delivery of double-stranded RNA or a double-stranded hybrid nucleic acid to regulate gene expression in mammalian cells” (Marina Biotech, Inc., priority 2004, dated 2015)
